Patent US10392368B2, “Pyrazolo and triazolo bicyclic compounds as JAK kinase inhibitors” (THERAVANCE BIOPHARMA R&D IP, LLC, priority 2017, dated 2019)

Key:
JAK2 = molecular target: T1, JAK2 (Homo sapiens, UniProt O60674); experiment: Biochemical JAK2 kinase assay (LanthaScreen); conditions: read-out: JAK 2 (pKi) (converted)
T1 construct: GST; purchased Life Technologies
Procedure, shortened: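 GST-tagged recombinant JAK2 pre-incubated 1 h at ambient temperature with compound and GFP-STAT1 peptide in HEPES pH 7.5/MgCl2 buffer, then ATP added for a 1 h reaction with 1% DMSO. TR-FRET read after EDTA and Tb-anti-pSTAT1 (pTyr701) addition; IC50 from 4-parameter fit, converted to pKi by Cheng-Prusoff.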

Tyk2 = molecular target: T2, Tyk2 (Homo sapiens, UniProt P29597); experiment: Biochemical Tyk2 kinase assay (LanthaScreen); conditions: read-out: Tyk 2 (pKi) (converted)
T2 construct: GST; purchased Life Technologies
T2 sequence (P29597 whole entry): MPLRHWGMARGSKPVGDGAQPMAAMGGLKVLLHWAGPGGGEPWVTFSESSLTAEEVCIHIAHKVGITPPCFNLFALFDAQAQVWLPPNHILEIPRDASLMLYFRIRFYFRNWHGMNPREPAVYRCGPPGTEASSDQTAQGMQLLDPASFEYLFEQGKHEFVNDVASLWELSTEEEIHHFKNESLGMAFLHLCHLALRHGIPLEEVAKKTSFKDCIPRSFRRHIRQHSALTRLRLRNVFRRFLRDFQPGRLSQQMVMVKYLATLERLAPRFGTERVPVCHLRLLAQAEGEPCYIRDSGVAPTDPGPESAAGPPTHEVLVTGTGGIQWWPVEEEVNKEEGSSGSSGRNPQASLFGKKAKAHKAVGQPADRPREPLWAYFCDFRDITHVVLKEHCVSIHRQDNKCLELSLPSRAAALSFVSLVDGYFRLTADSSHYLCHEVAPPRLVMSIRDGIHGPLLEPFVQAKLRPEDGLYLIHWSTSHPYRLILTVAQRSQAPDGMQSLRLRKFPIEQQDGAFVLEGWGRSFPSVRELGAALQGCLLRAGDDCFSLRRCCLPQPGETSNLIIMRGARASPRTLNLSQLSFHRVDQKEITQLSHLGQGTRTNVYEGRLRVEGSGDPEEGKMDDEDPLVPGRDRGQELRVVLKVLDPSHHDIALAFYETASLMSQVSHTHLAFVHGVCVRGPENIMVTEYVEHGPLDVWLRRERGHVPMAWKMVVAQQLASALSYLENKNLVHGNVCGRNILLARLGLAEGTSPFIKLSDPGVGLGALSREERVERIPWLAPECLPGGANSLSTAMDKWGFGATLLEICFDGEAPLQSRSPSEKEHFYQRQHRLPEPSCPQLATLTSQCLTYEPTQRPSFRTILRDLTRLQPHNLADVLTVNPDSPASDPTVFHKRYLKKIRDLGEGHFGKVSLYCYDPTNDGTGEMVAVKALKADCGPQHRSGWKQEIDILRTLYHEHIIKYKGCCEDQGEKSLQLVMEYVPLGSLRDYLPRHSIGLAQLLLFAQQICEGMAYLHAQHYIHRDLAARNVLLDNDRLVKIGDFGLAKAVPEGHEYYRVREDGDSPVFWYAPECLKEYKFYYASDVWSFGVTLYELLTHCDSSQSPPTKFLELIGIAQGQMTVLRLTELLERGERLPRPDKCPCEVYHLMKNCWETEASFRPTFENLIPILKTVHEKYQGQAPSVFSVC
Procedure, shortened: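 GST-tagged JAK enzyme and GFP-STAT1 peptide preincubated with compound 1 h, then ATP added; 1 h kinase reaction at ambient temperature, pH 7.5 HEPES/MgCl2 buffer, 1% DMSO. Tb-anti-pSTAT1 (pTyr701) TR-FRET, 520/495 nm ratio; IC50 from 4-parameter fit, converted to pKi via Cheng-Prusoff.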

[1] = system: IL-2 stimulated pSTAT5 in Tall-1 T cells; experiment: Cellular JAK3 potency assay: inhibition of IL-2 stimulated pSTAT5 in Tall-1 T cells; format: cell-based, human; conditions: Homo sapiens, TALL-1, IL-2 stimulated pSTAT5 in Tall-1 T cells; read-out: Tall-1 (pIC50) (converted)
Procedure, shortened: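 Tall-1 human T cells (45,000/well) in phenol red-free DMEM with 10% FBS were preincubated with compound 1 h at 37 °C, then stimulated with IL-2 (final 300 ng/ml) for 30 min. Lysate pSTAT5 read by AlphaLisa; IC50 from inhibition curves, reported as pIC50 (mean±SD).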

[2] = system: oxazolone-induced colitis; experiment: Mouse model of oxazolone-induced colitis; format: in vivo; conditions: 3 mg/kg (PO, BID)
Description: Oxazolone-induced colitis is an experimental model that has a histological resemblance to human ulcerative colitis (Heller et al. Immunology, 2002, 17, 629-638). Adult BALB/C mice from Harlan were used in the assay. On day 1, animals were lightly anesthetized with isoflurane and the hairs between the shoulder were carefully removed before oxazolone (4%, 150 μL, 4:1 acetone:olive oil formulation) or vehicle solution was slowly applied for skin sensitization. Seven days after skin sensitization, the mice were fasted around 6 hours prior, anesthetized with ketamine/xylazine injection, and a 1 mL syringe equipped with a 3.5-F catheter, filled with oxazolone solution, was inserted carefully about 4 cm into the colon of the mouse. Following insertion, 50 μL of the oxazolone solution (0.8% in 1:1 ethanol:water formulation) was injected very slowly (over 30 sec using an injection pump) into the colon. Drug treatment (PO, QD or BID or TID) or vehicle was initiated a day prior to the oxazolone intrarectal (IR) challenge. Two-day post oxazolone intrarectal challenge, the disease was assessed by treatment-blinded experimenters for each mouse according to the criteria score: stool consistency score (0, normal; 2, loose; 4, diarrhea), gross bleeding score (0, absence; 2, blood tinged; 4, presence); Combined stool score endpoint=stool consistency score+stool blood score.
Select compounds were tested in the assay.

[3] = system: IL-2 induced pSTAT5 in thymus; experiment: Systemic target engagement: murine model of IL-2 induced pSTAT5 induction in thymus; format: in vivo, mouse
Excerpt: IL-2 is an important cytokine underlying the pathophysiology of gastro-intestinal diseases such as […] bowel disease (IBD; Guan and Zhang. Mediators Inflamm, 2017; 4810258). IL-2 binds to cell surface receptors activating members of the Janus family of kinases (JAK), specifically JAK3, which then phosphorylates STAT5 and subsequently activates further transcription pathways. In this model, a dose of IL-2 was delivered systemically to mice to induce the phosphorylation of STAT5 (pSTAT5) which was then measured as the endpoint.
Adult male Balb/c mice from Harlan were used in the assay. Animals were administered test compound via oral gavage (PO, 10 or 30 mg/kg for single dose studies; 10-60 mg/kg for dose response studies) on the afternoon of the day prior to study and then in the morning on the day of study. Two hours after the second PO dose administration, mice were injected intraperitoneally (i.p.) with 100 μl of an appropriate IL-2 dose (for a total of 1-5 μg/mouse depending upon IL-2 batch; R&D Systems). 90-120 minutes after IL-2 insult, thymus samples were harvested.

T1 sequence (O60674 whole entry): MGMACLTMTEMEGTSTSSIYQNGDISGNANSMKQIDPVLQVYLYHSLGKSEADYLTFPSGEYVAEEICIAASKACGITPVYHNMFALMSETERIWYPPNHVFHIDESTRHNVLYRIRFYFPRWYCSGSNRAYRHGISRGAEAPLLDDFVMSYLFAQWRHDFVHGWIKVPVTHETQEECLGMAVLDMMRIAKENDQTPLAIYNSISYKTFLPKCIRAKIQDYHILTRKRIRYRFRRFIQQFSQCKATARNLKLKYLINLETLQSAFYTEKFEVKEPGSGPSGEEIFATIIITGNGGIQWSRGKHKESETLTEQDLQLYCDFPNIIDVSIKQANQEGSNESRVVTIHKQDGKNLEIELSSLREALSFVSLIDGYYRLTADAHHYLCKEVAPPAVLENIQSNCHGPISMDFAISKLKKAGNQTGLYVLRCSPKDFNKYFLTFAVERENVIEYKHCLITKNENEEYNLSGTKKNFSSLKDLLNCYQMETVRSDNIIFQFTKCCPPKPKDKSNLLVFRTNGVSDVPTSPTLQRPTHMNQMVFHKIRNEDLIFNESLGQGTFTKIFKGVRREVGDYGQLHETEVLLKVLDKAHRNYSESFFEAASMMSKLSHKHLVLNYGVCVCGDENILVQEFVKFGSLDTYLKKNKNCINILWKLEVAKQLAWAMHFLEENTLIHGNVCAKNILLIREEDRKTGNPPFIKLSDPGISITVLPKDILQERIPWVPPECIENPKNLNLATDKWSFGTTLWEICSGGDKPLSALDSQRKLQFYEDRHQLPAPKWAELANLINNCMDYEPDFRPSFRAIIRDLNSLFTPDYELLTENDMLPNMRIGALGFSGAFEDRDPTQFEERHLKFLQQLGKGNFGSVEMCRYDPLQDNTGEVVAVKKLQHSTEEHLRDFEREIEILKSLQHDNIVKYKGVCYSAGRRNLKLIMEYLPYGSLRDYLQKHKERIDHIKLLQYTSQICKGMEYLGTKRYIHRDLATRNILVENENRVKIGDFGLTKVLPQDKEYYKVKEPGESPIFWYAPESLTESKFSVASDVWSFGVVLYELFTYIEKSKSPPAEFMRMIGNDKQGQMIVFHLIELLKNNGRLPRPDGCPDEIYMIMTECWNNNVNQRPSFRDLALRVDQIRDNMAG

CN(C)C/C=C/C(=O)N1CC(COc2cc(-c3ccc(O)cc3)cc3[nH]ncc23)C1 [Compound 1, (E)-4-(dimethylamino)-1-(3-(((6-(4-hydroxyphenyl)-1H-indazol-4-yl)oxy)methyl)azetidin-1-yl)but-2-en-1-one]
Ki (JAK2): 10 to 100 nM | Ki (Tyk2): > 100 nM | IC50 [1]: 31.6 to 200 nM | combined stool score endpoint as compared with vehicle treated animals [2]: statistically significant decrease | inhibition of IL-2 induced pSTAT5 in thymus compared to vehicle ([3]; PO, 10, 30, 60 and 100 mg/kg): no significant inhibition

C=CC(=O)N1CC[C@H](Oc2cc(-c3ccc(O)c(Cl)c3)cc3[nH]ncc23)C1 [Compound 2, (S)-1-(3-((6-(3-chloro-4-hydroxyphenyl)-1H-indazol-4-yl)oxy)pyrrolidin-1-yl)prop-2-en-1-one]
Ki (JAK2): > 100 nM | Ki (Tyk2): > 100 nM | IC50 [1]: < 31.6 nM | combined stool score endpoint as compared with vehicle treated animals [2]: statistically significant decrease | inhibition of IL-2 induced pSTAT5 in thymus compared to vehicle ([3]; PO, 10, 30 and 60 mg/kg): no significant inhibition

CN(C)C/C=C/C(=O)N1CC(C(C)(C)Oc2cc(-c3ccc(O)c(Cl)c3)cc3[nH]ncc23)C1 [Compound 3, (E)-1-(3-(2-((6-(3-chloro-4-hydroxyphenyl)-1H-indazol-4-yl)oxy)propan-2-yl)azetidin-1-yl)-4-(dimethylamino)but-2-en-1-one]
Ki (JAK2): > 100 nM | Ki (Tyk2): > 100 nM | IC50 [1]: 31.6 to 200 nM | combined stool score endpoint as compared with vehicle treated animals [2]: statistically significant decrease | inhibition of IL-2 induced pSTAT5 in thymus compared to vehicle ([3]; PO, 30 and 100 mg/kg): no significant inhibition

C=CC(=O)N1CC(COc2nc(-c3ccc(O)cc3)nc3[nH]ncc23)C1 [Compound 4, 1-(3-(((6-(4-hydroxyphenyl)-1H-pyrazolo[3,4-d]pyrimidin-4-yl)oxy)methyl)azetidin-1-yl)prop-2-en-1-one]
Ki (JAK2): > 100 nM | Ki (Tyk2): > 100 nM | IC50 [1]: 31.6 to 200 nM | combined stool score endpoint as compared with vehicle treated animals [2]: statistically significant decrease | inhibition of IL-2 induced pSTAT5 in thymus compared to vehicle ([3]; PO, 30 mg/kg): no significant inhibition

CN(C)C/C=C/C(=O)N1CC(COc2cc(-c3ccc(O)c(F)c3)cc3[nH]ncc23)C1 [Compound 5, (E)-4-(dimethylamino)-1-(3-(((6-(3-fluoro-4-hydroxyphenyl)-1H-indazol-4-yl)oxy)methyl)azetidin-1-yl)but-2-en-1-one]
Ki (JAK2): 10 to 100 nM | Ki (Tyk2): > 100 nM | IC50 [1]: 31.6 to 200 nM | combined stool score endpoint as compared with vehicle treated animals [2]: statistically significant decrease | inhibition of IL-2 induced pSTAT5 in thymus compared to vehicle ([3]; PO, 30 mg/kg): no significant inhibition

C=CC(=O)N1CCO[C@@H](C(=O)Nc2cc(-c3ccc(O)cc3)cc3[nH]ncc23)C1 [Compound 6, (R)-4-acryloyl-N-(6-(4-hydroxyphenyl)-1H-indazol-4-yl)morpholine-2-carboxamide]
Ki (JAK2): 10 to 100 nM | Ki (Tyk2): > 100 nM | IC50 [1]: < 31.6 nM | combined stool score endpoint as compared with vehicle treated animals [2]: statistically significant decrease | inhibition of IL-2 induced pSTAT5 in thymus compared to vehicle ([3]; PO, 10 mg/kg): no significant inhibition

C=CC(=O)N1CC[C@H](COc2cc(-c3ccc(O)cc3)cc3[nH]ncc23)C1 [Compound 7, (S)-1-(3-(((6-(4-hydroxyphenyl)-1H-indazol-4-yl)oxy)methyl)pyrrolidin-1-yl)prop-2-en-1-one]
Ki (JAK2): 10 to 100 nM | Ki (Tyk2): > 100 nM | IC50 [1]: 31.6 to 200 nM | combined stool score endpoint as compared with vehicle treated animals [2]: statistically significant decrease | inhibition of IL-2 induced pSTAT5 in thymus compared to vehicle ([3]; PO, 10 mg/kg): no significant inhibition

CN(C)C/C=C/C(=O)N1CC(C#N)(COc2cc(-c3ccc(O)c(F)c3)cc3[nH]ncc23)C1 [Compound 8, (E)-1-(4-(dimethylamino)but-2-enoyl)-3-(((6-(3-fluoro-4-hydroxyphenyl)-1Hindazol-4-yl)oxy)methyl)azetidine-3-carbonitrile]
Ki (JAK2): 10 to 100 nM | Ki (Tyk2): > 100 nM | IC50 [1]: < 31.6 nM | combined stool score endpoint as compared with vehicle treated animals [2]: statistically significant decrease | inhibition of IL-2 induced pSTAT5 in thymus compared to vehicle ([3]; PO, 30 mg/kg): no significant inhibition

CN(C)C/C=C/C(=O)N1CCC(C)(Oc2cc(-c3ccc(O)cc3)cc3[nH]ncc23)CC1 [Compound 9, (E)-4-(dimethylamino)-1-(4-((6-(4-hydroxyphenyl)-1H-indazol-4-yl)oxy)-4-methylpiperidin-1-yl)but-2-en-1-one]
IC50 [1]: 31.6 to 200 nM

C=CC(=O)N1CC(C(C)(C)Oc2cc(-c3ccc(O)cc3)nc3[nH]ncc23)C1 [Compound 20, 1-(3-(2-((6-(4-hydroxyphenyl)-1H-pyrazolo[3,4-b]pyridin-4-yl)oxy)propan-2-yl)azetidin-1-yl)prop-2-en-1-one]
Ki (JAK2): > 100 nM | Ki (Tyk2): > 100 nM | IC50 [1]: < 31.6 nM

C=CC(=O)N1CC(C)(COc2nc(-c3ccc(O)c(F)c3)nc3[nH]ncc23)C1 [Compound 21, 1-(3-(((6-(3-fluoro-4-hydroxyphenyl)-1H-pyrazolo[3,4-d]pyrimidin-4-yl)oxy)methyl)-3-methylazetidin-1-yl)prop-2-en-1-one]
Ki (JAK2): > 100 nM | Ki (Tyk2): > 100 nM | IC50 [1]: 31.6 to 200 nM | combined stool score endpoint as compared with vehicle treated animals [2]: statistically significant decrease

C=CC(=O)N1CC(CC)(COc2cc(-c3ccc(O)cc3)nc3[nH]ncc23)C1 [Compound 22, 1-(3-ethyl-3-(((6-(4-hydroxyphenyl)-1H-pyrazolo[3,4-b]pyridin-4-yl)oxy)methyl)azetidin-1-yl)prop-2-en-1-one]
Ki (JAK2): > 100 nM | Ki (Tyk2): > 100 nM | IC50 [1]: 31.6 to 200 nM
